Laboratory results reported in patent US5342612A, “Compositions for the treatment of mammalian diseases” (priority 1991, dated 1994).

Legend:
S. aureus = experiment: Potentiation of lysostaphin bactericidal activity (minimum bactericidal concentration assay, survival of S. aureus); format: cell-based, Staphylococcus aureus; conditions: 18 h
Procedure: Preparation of 50% glycerol and 15% poloxamer 407 NF plus lysostaphin is as follows: The lysostaphin stock of 2.5 mg/mL is thawed and filtered through a 0.22μ filter. [formula]
In a similar fashion, triacetin solutions are also prepared.
Mueller-Hinton Broth containing lysostaphin is prepared as above. Penicillin in Mueller-Hinton Broth is prepared to serve as a control. Starting with a frozen 2.5 mg/mL stock solution the penicillin is diluted as follows: 400 μl of 2.5 mg/mL is placed in 600 μl of Mueller-Hinton Broth to yield a 1000 μg/mL solution. Added to 3744 μl of Mueller-Hinton Broth is 256 μl of the 1000 μg/mL solution to yield a 64 μg/mL solution.
Placed in sterile tubes are 2 mL of the vehicle and lysostaphin; Mueller-Hinton Broth plus lysostaphin; and Mueller-Hinton Broth plus penicillin. Serial two-fold dilutions are performed by hand using 1 mL of the appropriate vehicle as the diluent. Lysostaphin and penicillin dilutions range from 64 μg/mL to 0.25 μg/mL. All combinations are done in duplicate. The Staphylococcus aureus is grown for 5 hours in 5 mL of TSB and 0.1 mL is removed and placed in 9.9 mL of saline. Each tube is inoculated with 100 μl of the diluted culture. Plate counts are performed on the inoculum. All tubes are incubated for 18 hours at 37° C. with constant agitation. Following incubation, each dilution of lysostaphin in the vehicles or Mueller-Hinton Broth and penicillin in Mueller-Hinton Broth is diluted in phosphate buffered saline to 10^-2, 10^-4 and 10^-6.
Plated on a TSA with 10% sheep blood is 100 μl of the undilute and of each dilution. The plates are inverted and incubated for 18 hours. Following incubation, the number of colonies on each plate is counted.
The vehicles which inhibit the growth or are moderately bactericidal to S. aureus by themselves are unable to be evaluated using the MIC procedure. For these vehicles a minimum bactericidal concentration assay (MBC) is performed. This assay in conjunction with the previous MIC data distinguish bacteriostatic effects versus bactericidal effects of the vehicles. Various formulations are mixed with lysostaphin at a final concentration of 32 μg/mL. Ten, serial two- or four-fold dilutions of the lysostaphin are performed in the vehicle and each tube inoculated with a 2-6 x's 106 S. aureus CFU's (bacterial colony-forming units). Samples are removed after 18 hours and plated on blood agar plates.

S. aureus mastitis = conditions: Oldham et al.; in words; cited from earlier work
[1] = test system: Staphylococcus aureus (Newbould 305); experiment: Potentiation of lysostaphin bacteriostatic activity (minimum inhibitory concentration); format: cell-based; conditions: in saline, diluted in MHB
Procedure: Dissolved in 15% w/v poloxamer 407 NF is 512 μg/mL of lysostaphin by adding 487.4 μl of a 2.5 mg/mL aqueous solution to 1512.6 μl of the 15% w/v poloxamer 407 NF in sPBS. The lysostaphin is first filtered through a 0.22 μ filter and the concentration is adjusted (1.19 factor). The poloxamer 407 NF is mixed overnight and filtered through a 0.22μ cellulose acetate filter. In a similar fashion, preparations with other vehicles such as lysostaphin in triacetin are prepared.
Lysostaphin in Mueller-Hinton Broth is run as a control and a 512 μg/mL solution is prepared from the same 2.5 mg/mL solution as the poloxamer 407 NF mixture. Placed in 189 μl of Mueller-Hinton Broth is 61 μl of the 2.5 mg/mL solution.
Placed in the first well of a 12 well row is 100 μl of each mixture and serial two-fold dilutions are performed in Mueller-Hinton Broth through row 12. Following dilution, 50 μl of inoculum is added to each well. Inoculum is prepared by inoculating a tube of trypticase soy broth (TSB) from an overnight trypticase soy agar (TSA) culture containing a 10% sheep blood plate of Staphylococcus aureus (Newbould 305). The tube is incubated for 5 hours at 37° C. with constant agitation. […]
The inhibitory profile as measured by the reduction of the optical density at 650 nm in the presence of the vehicle is then compared to that of lysostaphin diluted in Mueller-Hinton Broth. […]

[2] = test system: A20 (B-cell tumor cell line); experiment: Toxicity of formulations on mammalian cell lines (cell viability, Coulter); format: cell-based, murine
Procedure: (§1) Cell Lines: A20: B-cell tumor cell line 9C127: T-cell hybridoma cell line LB/62287: B-cell lymphoma cell line P388.D1: Macrophage tumor cell line
(§2) Cell lines (1×10^5 /well; >85% viability) are cultured in 24 well flat bottom plates in RPMI® medium (Gibco Laboratories, Grand Island, N.Y.) supplemented with 10% fetal calf serum, streptomycin (100 μg/mL) and penicillin (100 U/mL). Cultures are incubated (37° C., 10% CO2) with the following concentrations of vehicles:
(§3) c) 1.0%, 0.1% or 0.01% Triacetin or IMWITOR®
(§4) After a 72 hour or 6 hour incubation period, cells are harvested and counted by the Coulter Counter (Northwell Drive, England). Cell viability is determined using a Coulter Channelyzer.
(§5) The relative toxicity of the sample formulations to estimate the relative degree of toxicity for in vivo administration is carried out in vitro with the mammalian cell lines. Various concentrations of the vehicles are incubated for either 6 or 24 hours with the different mammalian cell lines. Immediate toxicity is evaluated at 6 hours by quantitating the number of dead cells in treated wells as compared to the untreated controls. Long term toxicity effects as well as effects which may inhibit cell growth are evaluated by measuring the relative degree of proliferation after an additional 48 hours incubation with ^3 H-thymidine.

[3] = test system: 9C127 (T-cell hybridoma cell line); experiment: as above; format: cell-based, murine
Procedure: as §1, §2, §3, §4, §5

[4] = test system: P388.D1 (Macrophage tumor cell line); experiment: in vitro; format: cell-based, murine
Procedure: as §1, §2, §3, §4, §5

[5] = lysostaphin (or penicillin) 1 μg/mL
[6] = lysostaphin (or penicillin) 4 μg/mL

Lysostaphin: gene product of Staphylococcus simulans, enzymatically degrading the polyglycine crosslinks of the cell wall
Survival of S. aureus CFU (Log 10) in Vehicles (S. aureus; lysostaphin 0.25 μg/mL): 9.7 CFU (Log 10)
Killing of S. aureus (footnote class) (S. aureus; lysostaphin 2 μg/mL): ^3 (Greater than 99.99% killing of S. aureus)
Survival of S. aureus CFU (Log 10) in Vehicles (S. aureus; lysostaphin 2 μg/mL): 3.6 CFU (Log 10)
Killing of S. aureus (footnote class) (S. aureus; lysostaphin 8 μg/mL): ^3 (Greater than 99.99% killing of S. aureus)
Survival of S. aureus CFU (Log 10) in Vehicles (S. aureus; lysostaphin (or penicillin) 0.5 μg/mL): 8.6 CFU (Log 10)
Killing of S. aureus (footnote class) (S. aureus; [5]): ^2 (Greater than 95% killing of S. aureus)
Survival of S. aureus CFU (Log 10) in Vehicles (S. aureus; [5]): 8.1 CFU (Log 10)
Killing of S. aureus (footnote class) (S. aureus; [6]): ^3 (Greater than 99.99% killing of S. aureus)
Survival of S. aureus CFU (Log 10) in Vehicles (S. aureus; [6]): 4.8 CFU (Log 10)
Survival of S. aureus CFU (Log 10) in Vehicles (S. aureus; lysostaphin (or penicillin) 8 μg/mL): 3.3 CFU (Log 10)
Therapeutic efficacy compared with CEFA-LAK (S. aureus mastitis): not equivalent to the commercially available product CEFA-LAK®
Control MIC of lysostaphin ([1]; control of the PLURONIC F127 line): 0.125
Control MIC of lysostaphin ([1]; control of the triacetin line): 1.0

PLURONIC ® F 127
Relative Toxicity at 6 Hours [2]: -
Relative Toxicity at 6 Hours [3]: -
Relative Toxicity at 6 Hours [4]: -
